Data on four molecules can be found in patent publication US12709734B2, “Human polarised three-dimensional cellular aggregates” (CAMBRIDGE ENTERPRISE LIMITED, priority 2018, dated 2026).

Entries after “also recorded” stand apart in the source; their conditions may differ.

Assay [1] has as its system hESCs (RUES2-GLR, MasterShef7). As to the kind of experiment: Effect of Chiron pre-treatment on adherent hESCs (RT-qPCR, immunostaining). The format is cell-based, human. As to the method:
We pre-treated hESCs for 1 day in pluripotency medium supplemented with 3-3.5 μM of the Wnt signalling agonist, CHIR99021 (hereafter referred to as Chiron) before aggregation; effectively shifting the Chiron pulse to before the aggregation rather than 48 h after aggregation as is the case in mouse gastruloids (Baillie-Johnson, P., et al., 2015).
(§1) Before aggregation, hESCs cultured in 6-well plates were typically pretreated with 3-3.5 μM CHIR99021 (Chiron) in Nutristem for 24 h, unless otherwise stated.
Adherent cell staining was done using 1:200 Mouse anti-CDH2 (BD Biosciences, BD10920), 1:200 Rat anti-CDH1 (Takara, M108) and 1:200 Rabbit anti-BRACHYURY (AbCam, ab209665) primary antibodies. Quantification was performed using Fiji software on the whole image (histograms) or using a line ROI through the colony (line graph).
Gene expression was analysed from adherent cells using Trizol (Ambion LifeTechnologies) according to manufacturer's instructions. Total RNA was quantified using a NanoDrop 2000C (ThermoScientific) and 5 μg was added to a reverse transcription reaction with Superscript III (Invitrogen) according to manufacturer's instructions. Resultant cDNA was quantified by qPCR with SYBRGreen (Merck) using a liquid handling robot (Qiagility, Qiagen) and analysed on a RotorGeneQ thermocycler (Qiagen). Primer sequences can be found in Supplementary Table 1. Concentration of cDNA was estimated using an in-house MAK2 analysis method.
(In general: Real-time PCR tracks product formation cycle by cycle.)

Assay [2] concerns RUES2-GLR human gastruloids. The experiment in a line: Human gastruloid formation: elongation and germ layer reporter patterning after pre-treatment. The class given is cell-based. The settings on record: for elongation / BRA expression of gastruloids: 24 h pre-treatment of RUES2-GLR cells in Nutristem with the named factor (Wnt3a 100 ng/ml or BMP4 50 ng/ml instead of Chiron); for SOX2 expression domain / SOX17 expression: Chiron + 10 μM SB431542 24 h pre-treatment vs Chiron only, RUES2-GLR reporter. As to the method: as §1
For signal modulation experiments, RUES2-GLR cells were pre-treated for 1 day in Nutristem supplemented with 100 ng/ml recombinant human Wnt3a (5036-WN-010) or 50 ng/ml BMP4 (314-BP), and aggregated in E6 and ROCK inhibitor with additional supplementation as shown. Subsequent media changes were performed daily with E6 alone. To test the effect of signal modulation on gastruloid formation, RUES2-GLR cells were pre-treated in Nutristem supplemented with 3.25 μM Chiron and one of 1 μM LDN193189 (04-0074), 1 μM XAV-939 (04-0046), or 10 μM SB431542 (1614) before aggregation in E6 with 0.5 μM Chiron and ROCK inhibitor, unless otherwise stated. Subsequent media changes were performed daily with E6 alone.
An alternative, ‘dorsalised’ protocol used 3 μM Chiron, supplemented with 10 μM SB431542 Nodal inhibitor (SB431542) also in Nutristem for 24 h.
After pre-treatment, hESCs at 60-85% confluency were washed twice with PBS−/−. For detachment, 2 ml 0.5 mM EDTA in PBS−/− was applied per well and cells were incubated at 37° C., 5% CO2 for 6.5 min. The plate was then carefully tapped against a solid object to promote detachment and the suspension was pipetted up and down repeatedly (5-10−) with a P1000 to break remaining clumps into single cells.
The suspension was then transferred into a 15 ml centrifuge tube with 8 ml PBS−/− and centrifuged for 3-5 min at 1000 rpm. The supernatant was removed, cells were washed with PBS−/− and spun down again 3-5 min at 1000 rpm. Subsequently, depending on the pellet size, cells were resuspended in 500 μl to 2 ml Essential 6 (E6) medium (Gibco, life technologies) and counted using an automated cell counter (MoxiZ, Orflo). Optimal cell density should be around 1×10^6/ml. The specific number of cells optimized per cell line (400/well for RUES2-TR, 500/well for mSHEF7 and H9TV lines) were then added to E6 supplemented with 5 μM Rock Inhibitor and 3 μM Chiron. Using a multichannel pipette, cells in this suspension were plated in 40 μl per well of an ultra-low adhesion, round bottom 96-well plate (Costar, Corning Inc.). At 24 h after aggregation, 150 μl E6 were added into each well using a multichannel pipette. E6 (see Chen et al., 2011) was continuously exchanged every subsequent day by removing 150 μl per well and adding the same amount.
Human gastruloids made using the RUES2-GLR reporter line were specifically analysed for dynamic reporter expression. An in-house MATLAB script was developed to assess the dynamic fluorescent marker expression along the AP axis of human gastruloids. Widefield images of gastruloids were taken at 24 h, 48 h and 72 h and aligned along their anteroposterior axis with reference to fluorescent reporter expression. For each sample, a binary image was generated in the brightfield channel and used as a mask for all fluorescent channels and the major (length) axis was identified. Consequently, for every pixel along the length axis, the sum of intensity values of the respective channel along the width of the aggregate was divided by the width of the gastruloid at that specific point, yielding the normalized fluorescence intensity along the length of the sample. This process was then repeated for every acquired fluorescent channel. Gastruloids used for this analysis were a full set from one experimental batch, and images were only excluded from the analysis when anteroposterior alignment or binarization were unsuccessful.
In order to quantify the degree of elongation of human gastruloids, brightfield channel widefield images were imported into Fiji (Schindelin et al., 2012). The length of the longest axis was measured using the line tool, followed by the length of the perpendicular axis at the mid-point of the longest axis line. […]

Assay [3] relates to HYS01030 human induced pluripotent stem cell (iPSC) line. The experiment in a line: Gastruloid formation from human induced pluripotent stem cells. The format is cell-based. As to conditions: 3.5 uM Chiron 1 day before aggregation, aggregated in Chiron and ROCK inhibitor. The text has this:
FIG. 8: Human gastruloids made from induced pluripotent stem cells. […] 6 representative examples are show. […] There is also some sign of a rosette-like or lumenised structure that expresses SOX2 in the posterior tip (arrowhead). 3 representative examples are shown.
We used a wild type hESC line (mSHEF7; REF) as well as two transgenic lines, the H9TV BRACHYURY-Venus reporter (Mendjan et al., 2014) and RUES2-GLR, the triple reporter for germ layer markers with BRACHYURY-H2B-mCerulean, SOX17-H2B-tdTomato and SOX2-mCitrine (Simunovic et al., 2018). We also used a human induced pluripotent stem cell line, known as HYS01030 (unpublished).

The test system of assay [4] is RUES2-GLR human gastruloids. The experiment in a line: Tomo-sequencing of Chiron vs Chiron+SB431542 pre-treated human gastruloids. The format is cell-based. The procedure:
An alternative, ‘dorsalised’ protocol used 3 μM Chiron, supplemented with 10 μM SB431542 Nodal inhibitor (SB431542) also in Nutristem for 24 h. Tomo-sequencing was performed and analysed in an updated version of published methods (Junker et al., 2014; and Kruse et al., 2016). In short, gastruloids were sectioned along their AP axis, and the mRNA-content of each section was extracted using SORT-seq (Muraro et al., 2016). Paired end (75 bp) sequencing was performed on the resulting RNA-seq libraries using the Illumina Next-Seq sequencing platform. Read 1 contains the cell or section barcode and the unique molecular identifier (UMI). Read 2 contains the biological information. Reads 2 with a valid cell/section barcode were selected and mapped using STAR-2.5.3a with default parameters to the human GRCh38 genome (ENSEMBL version 93), and only reads mapping to gene bodies (exons or introns) were used for downstream analysis. Reads mapping simultaneously to an exon and to an intron were assigned to the exon. Mappabilities for the different samples range between 44% and 47%. For each cell or section, the number of transcripts was obtained as previously described […]. We refer to transcripts as unique molecules based on UMI correction. […] In each gastruloid, data was then normalized to the median number of unique transcripts per slice, and the z-score of each gene was extracted along sections. The reproducibility of AP expression pattern between different gastruloid replicates was scored for each gene using a random background model to calculate the Pearson correlation coefficient p-value. The p-value threshold to select reproducible genes was set at 0.001. […] Differential gene expression was performed by normalizing the transcripts in each section to 100,000 for all gastruloids; then pooling all sections of each gastruloid together; and finally assessing significant differentially expressed genes based on total expression using the Binomial test. An alternative, ‘dorsalised’ protocol used 3.25 μM Chiron, supplemented with 10 μM SB431542 Nodal inhibitor (SB431542) also in Nutristem for 24 h. They were then aggregated in E6 with 3 μM Chiron and ROCK inhibitor.

Where [5] appears, read: 120 h Chi+SB43 vs 72 h Chiron pre-treated gastruloids.
Where [6] appears, read: Chi+SB43 vs Chi pre-treated gastruloids.
Setting [7] is: Chiron + SB431542 pre-treated vs Chiron pre-treated gastruloids.
The mark [8] stands for this setting: of genes reproducible in either or both conditions, Chi+SB43 vs Chi.

In the case of `Cc1c[nH]c(-c2cnc(NCCNc3ccc(C#N)cn3)nc2-c2ccc(Cl)cc2Cl)n1` [Chiron, CHIR99021], the “expression of NANOG” value in assay [1] (24 h Chiron pre-treatment vs Nutristem alone, RT-qPCR, RUES2-GLR) is “increased expression”. Also, the “expression and membrane localisation of CDH1 (E-cadherin) / CDH2 (N-cadherin)” value in assay [1] (24 h Chiron pre-treatment vs Nutristem, immunostaining of adherent colonies) was “switch in the expression and membrane localisation of CDH1 (E-cadherin) towards CDH2 (N-cadherin; also recorded: increase in the expression of membrane localised CDH2 (N-cadherin)”. Moreover, in assay [1] (1 day Chiron pre-treatment vs pluripotency medium alone, RT-qPCR), the “expression of mesendodermal marker genes (BRA, MIXL1, LEFTY1, LEFTY2, AXIN2, EOMES, CDX1)” value is on record as “increased expression”. Further, in assay [1] (1 day pre-treatment with 3-3.5 μM Chiron vs pluripotency medium (Nutristem) alone, RT-qPCR), the “expression of pluripotency markers (POU5F1, SOX2)” value is recorded as “levels equivalent to cells maintained in pluripotency medium alone; also recorded: levels comparable to cells maintained in pluripotency medium alone”. Also, the “levels of SOX2” value in assay [1] (1 day pre-treatment with 3-3.5 μM Chiron vs pluripotency medium alone, RT-qPCR) is on record as “slightly reduced”. Moreover, the “elongation / BRA expression of gastruloids” value (from here on “elongation / BRA expression”) in assay [2] is given as “strictly dependent on the Chiron pre-treatment”. Further, in assay [2] (72 h after aggregation, Chiron pre-treated RUES2-GLR, average of experiments), the “aggregates displaying an elongated morphology” value was ~ 66%. The “morphology of iPSC-derived aggregates” value in assay [3] is given as “polarised in their morphology at 72 hours”.

Regarding `NC(=O)c1ccc(-c2nc(-c3ccc4c(c3)OCO4)c(-c3ccccn3)[nH]2)cc1` [SB431542], the BRA expression pattern result in assay [2] (Chiron + 10 μM SB431542 24 h pre-treatment) is given as “diffuse expression of BRA that approximated a gradient from anterior to posterior”. In addition, in assay [2], the SOX2 expression domain result is “distinctly larger domains of SOX2 expression” and the SOX17 expression entry is reported as “fewer, if any, SOX17 expressing cells”. Also, in assay [2] (listed as SB43), the SOX2 expression domain result was “larger, well-defined SOX2 domain at their posterior end” and the SOX17 expression result is reported as “absence of detectable SOX17 expression”. Moreover, in assay [2] (Chiron + 10 μM SB431542 24 h pre-treatment, compared to original method), the “elongation and polarisation of gene expression” value was “able to elongate and polarise their gene expression”. In addition, in assay [4] (setting [5]), the “genes reproducibly localised in both conditions” value is recorded as 301 genes, the “genes with loss of reproducible localisation” value was found to be 509 genes and the “genes with novel spatial localisation acquired” value turned out to be 944 genes. Besides, in assay [4] (setting [6]), the “expression of HOX genes (HOXC9, HOXA9, HOXC6) and SOX2” value is listed as “up-regulation”; the “expression of Nodal signalling components and targets” value is on record as “down-regulation”; the “expression of cardiac development genes (TBX5, GATA6, LBX1, NKX2.5)” value is listed as “loss of many genes”; the “expression of definitive endoderm genes (SHH, LHX1, CER1, FOXA3, SORCS2, FOXA2)” value is listed as “decrease in expression”. Further, in assay [4] (setting [7]), the “domain-size and level of expression of SOX2 and SOX3” value was “increase in the domain-size and level of expression”; the “expression of BRA, CYP26A1 and WNT3A in the posterior domain” value is on record as “comparable to the Chiron pre-treated human gastruloids”; the “expression of FOXA2” value is “very little expression”; the “expression of Node-like markers NODAL, NOTO, PITX2, DAND5” value is on record as “no detectable expression”. For the same molecule, the “expression of asymmetry markers LEFTY1, LEFTY2 and anterior cardiac mesoderm markers GATA4, GATA6, HAND2” value in assay [4] (setting [7]) was “little or no expression”. Besides, the “localisation of somitogenesis-like genes (MEOX, TCF15)” value in assay [4] (Chiron + SB431542 pre-treated vs Chiron pre-treated gastruloids (central region)) is “become anteriorly localised”. Besides, in assay [4] (setting [8]), the “genes differentially expressed between the two treatments” value was 564 genes and the “proportion of genes differentially expressed between the two treatments” value was determined as 33%.

B1: BMP4: BMP4 protein used for pre-treatment, 50 ng/ml (protein, UniProt P12644 293-408, looked up)
Bone morphogenetic protein 4: SPKHHSQRARKKNKNCRRHSLYVDFSDVGWNDWIVAPPGYQAFYCHGDCPFPLADHLNSTNHAIVQTLVNSVNSSIPKACCVPTELSAISMLYLDEYDKVVLKNYQEMVVEGCGCR
On to B1, for which the “elongation / BRA expression” value in assay [2] is listed as “insufficient to promote elongation or BRA expression”.

B2: Wnt3a: recombinant human Wnt3a (protein, UniProt P56704 19-352, looked up)
Protein Wnt-3a: SYPIWWSLAVGPQYSSLGSQPILCASIPGLVPKQLRFCRNYVEIMPSVAEGIKIGIQECQHQFRGRRWNCTTVHDSLAIFGPVLDKATRESAFVHAIASAGVAFAVTRSCAEGTAAICGCSSRHQGSPGKGWKWGGCSEDIEFGGMVSREFADARENRPDARSAMNRHNNEAGRQAIASHMHLKCKCHGLSGSCEVKTCWWSQPDFRAIGDFLKDKYDSASEMVVEKHRESRGWVETLRPRYTYFKVPTERDLVYYEASPNFCEPNPETGSFGTRDRTCNVSSHGIDGCDLLCCGRGHNARAERRREKCRCVFHWCCYVSCQECTRVYDVHTCK
As for B2, in assay [2], the “elongation / BRA expression” value is given as “insufficient to promote elongation or BRA expression”.
